Data on three compounds can be found in publication PMC4767720 (Drugs in R&D, 2016).

SMILES strings stand for the structures.

In series [1] the test system is syk. The conditions noted are these: statement of the introduction, no reference given; cited from earlier work.
Series [2] in a line: Ketoconazole interaction study, plasma pharmacokinetics. Format: in vivo, human.
Series [3] is described as follows: Safety and tolerability assessments in the three clinical studies. Format: in vivo, human.
Series [4] in a line: Rifampicin interaction study, plasma pharmacokinetics. The format is in vivo, human.
Series [5] is described as follows: Microsomal stability of R406 in human hepatic microsomes. The format is in vitro ADME. Particulars: R406 1 μM, 0.1 mg microsomal protein, NADPH 1 mM, 37 °C, pH 7.4.
Series [6] can be described thus: Verapamil interaction study, plasma pharmacokinetics. The format is in vivo, human.
The conditions of series [7]: 10 μM R406, 1 mg protein/mL, 15 min.
Where [8] appears, read: R406, 150 mg fostamatinib + rifampicin (P2), n=15.
[9] abbreviates: R406, 150 mg fostamatinib alone (P1), n=15.
The mark [10] stands for this setting: R406 in plasma, single oral 150 mg fostamatinib alone (P1), n=15.
The mark [11] stands for this setting: R406, 80 mg fostamatinib + ketoconazole (P2), n=8.
Setting [12] is: R406, 80 mg fostamatinib alone (P1), n=8.
The mark [13] stands for this setting: R406, 80 mg fostamatinib, ketoconazole 200 mg twice daily.
[14] abbreviates: R406 in plasma, single oral 80 mg fostamatinib alone (P1), n=8.

As for `COc1cc(Nc2ncc(F)c(Nc3ccc4c(n3)NC(=O)C(C)(C)O4)n2)cc(OC)c1O` [R529], the “activity against syk compared with R406” value in series [1] is “much less active”.

For the compound `COc1cc(Nc2ncc(F)c(Nc3ccc4c(n3)N(COP(=O)(O)O)C(=O)C(C)(C)O4)n2)cc(OC)c1OC` [Fostamatinib], the “activity against syk compared with R406” value in series [1] is “much less active”. Further, the “plasma levels of R788” value in series [2] (80 mg fostamatinib with ketoconazole-placebo or with ketoconazole) is given as “negligible”. In series [2] (80 mg fostamatinib with placebo or ketoconazole), the “highest plasma concentration of R788 obtained in any subject” value is less than 7 ng/mL. The “time post-dose beyond which no quantifiable R788 (above 0.5 ng/mL) was obtained” value in series [2] (any subject) came to 2 h. The tolerability result in series [3] (all three clinical studies, alone and in combination with a CYP3A4 inducer/inhibitor) is recorded as “well tolerated”. In addition, the “deaths, serious AEs, withdrawals due to AEs, severe AEs” value in series [3] (any of the three studies) was “no deaths, serious AEs, withdrawals due to AEs or severe AEs”. Further, in series [3] (ketoconazole interaction study), the “treatment-emergent AEs in subjects receiving fostamatinib and ketoconazole” value was “No treatment-emergent AEs”. The “total AEs reported” value in series [3] (ketoconazole interaction study, all treatments, N=8) is listed as “eight”; in series [3] (verapamil interaction study, one AE per treatment arm, one mild, two moderate), “three”. Besides, the “total AEs recorded” value in series [3] (rifampicin interaction study, all arms, all mild) was “four”. Moreover, in series [3] (verapamil interaction study), the “AEs considered related to administration of fostamatinib” value is given as “None”.

Regarding `COc1cc(Nc2ncc(F)c(Nc3ccc4c(n3)NC(=O)C(C)(C)O4)n2)cc(OC)c1OC` [R406], the “reduction in R406 Cmax with rifampicin co-administration” value in series [4] (150 mg fostamatinib, rifampicin 600 mg once daily) is recorded as roughly 60%. The “effect of rifampicin co-administration on tmax” value in series [4] (R406, 150 mg fostamatinib) is given as “no consistent effect”. Further, the “tmax, median” value in series [4] (setting [8]) was 1.00 h; in series [4] (setting [9]), 2.00 h; in series [6] (R406, 150 mg fostamatinib + verapamil (P2), n=14), 1.50 h; in series [6] (setting [9]), 1.48 h; in series [2] (setting [11]), 2.00 h; in series [2] (setting [12]) it was 1.25 h. The “t½, geometric mean (GCV %)” value in series [4] (setting [8]) was 10.8 (38.6) h; in series [4] (setting [9]), 15.0 (30.3) h; in series [6] (R406, 150 mg fostamatinib + verapamil (P2), n=13) it was 19.1 (51.1) h; in series [6] (setting [9]), 13.5 (28.4) h; in series [2] (setting [11]) it was 17.7 (31.9) h; in series [2] (setting [12]), 13.6 (32.1) h. Moreover, the “AUC0–∞, geometric mean (GCV %)” value was 6540 (48.5) ng·h/mL in series [4] (setting [10]), 6380 (36.1) ng·h/mL in series [6] (setting [10]) and 3690 (19.9) ng·h/mL in series [2] (setting [14]). The “Cmax, geometric mean (GCV %)” value in series [4] (setting [10]) is 573 (58.7) ng/mL; in series [6] (setting [10]), 588 (45.7) ng/mL; in series [2] (setting [14]), 325 (13.7) ng/mL. This compound showed a microsomal half-life in series [5] of 0.407 h. Besides, in series [6] (150 mg fostamatinib), the “effect of verapamil co-administration on R406 Cmax” value is “no consistent effect”. The “effect of verapamil on R406 tmax” value in series [6] (150 mg fostamatinib) is “no consistent effect”. Moreover, the “subjects with higher R406 AUC after verapamil co-administration” value in series [6] (150 mg fostamatinib, verapamil 80 mg three times daily) is given as 10 of the 13. The major metabolite entry in series [7] is on record as “para-O-demethylated R406, R529”. Further, the “increase in R406 exposure with ketoconazole co-administration” value in series [2] (80 mg fostamatinib, ketoconazole 200 mg twice daily) was determined as 2 fold. In addition, the “average increase in AUC0–∞ after co-administration of ketoconazole” value in series [2] (setting [13]) is reported as 102%. The “average increase in Cmax after co-administration of ketoconazole” value in series [2] (setting [13]) is 37%. The “average t½” value in series [2] (R406, fostamatinib alone) worked out at 14.2 h; in series [2] (R406, fostamatinib with ketoconazole co-administration), 18.4 h. Further, the “tmax (value of the text, not the median)” value in series [2] (R406, fostamatinib plus ketoconazole) worked out at 1.69 h.
